Assay results from paper PMC11219871, “Epigenetic-based differentiation therapy for Acute Myeloid Leukemia” (Nature Communications, 2024).
Values joined by “and” are separate entries in the source; they are usually repeats but may differ in a detail not shown here. Equal entries are not always repeated.

Experiments:
[1] = tested on: primary AML patient samples; experiment: Differentiation assay, CD11b flow cytometry in primary samples; assay type: cell-based, human; settings: for CD11b-positive cells (%): daily 48 h
Procedure: Next, the cells were washed twice with phosphate-buffered saline (PBS) and resuspended in 1X Binding Buffer at a concentration of 1 × 10^6 cells/mL. An 8-µL aliquot of APC-CD11b (BD Pharmingen, Franklin Lakes, NJ, USA) and 1 µL of FITC annexin-V (AV) (BD Pharmingen, Franklin Lakes, NJ, USA) antibodies were added and incubated for 15 min at room temperature in the dark. Finally, after the addition of 400 µL of 1X Binding Buffer to each tube, samples were collected on a BD FACSCanto flow cytometer (Becton Dickinson, San Jose, CA, USA) and analyzed using FlowJo software.
Peripheral blood (PB) specimens were obtained from preliminarily diagnosed AML patients who had not received any treatment before specimens were collected. All patients gave informed consent for their participation in this study, which was approved by the Clinical Research Ethics Committee of Clínica Universidad de Navarra. Written informed consent was obtained from each participant. PB was mixed with an ammonium chloride-potassium (ACK) buffer lysis (0.15 mol/L NH4Cl, 10 mmol/L KHCO3, 0.1 mmol/L ethylenediaminetetraacetic acid, pH 7.2) at a 1:2 volume ratio by gentle inversion, incubated for 10 min and centrifuged at 200 g for 10 min. The cell pellet was washed twice with PBS and finally resuspended in EGM2 medium (Cambrex Bioscience, Walkersville, MD). EGM2 contains 2% fetal calf serum, hydrocortisone, heparin, antibiotics, epidermal growth factor, human fibroblast growth factor, insulin-like growth factor, vascular endothelial growth factor, and ascorbic acid. The cells were plated at 1 × 10^6 cells/mL and treated daily with 200 and 500 nM of CM-444 and CM-1758 for 48 h. Next, the differentiation assay was performed as described above.

GF-D8 = experiment: Cell proliferation assay: GI50; assay type: cell-based
Procedure: (§1) Cell proliferation was analyzed using the CellTiter 96 Aqueous One Solution Cell Proliferation Assay (Promega, Madison, WI). This is a colorimetric method for determining the number of viable cells in proliferation. For the assay, suspension cells were cultured in triplicate at a density of 1 × 10^6 cells/mL in 96-well plates (100.000 cells/well, 100 µL/well), using only the 60 inner wells to avoid any border effects. After 48 h of treatment with different doses of each compound (0, 0.001, 0.01, 0.1, 0.2, 0.4, 0.6, 0.8, 1, 2, 3, 4, 5 and 10 µM), the plates were centrifuged at 800 g for 10 min followed by removal of the medium. Then, the cells were incubated with 100 μL/well of medium and 20 μL/well of CellTiter 96 Aqueous One Solution reagent for 1–3 h. The absorbance was recorded at 490 and 650 nm as reference wavelengths using 96-well plate readers until the absorbance of the control cells without treatment was approximately 0.8 AU. The background absorbance was measured in wells with only cell line medium and solution reagent. First, the average of the absorbance from the control wells was subtracted from all other absorbance values. Data were calculated as the percentage of total absorbance of treated cells/absorbance of non-treated cells. The GI50 values of the different compounds were determined using non-linear regression plots made with GraphPad Prism v5 software.

THP-1 = experiment: Cell proliferation assay: GI50; assay type: cell-based
Procedure: as §1

MONO-MAC-6 = experiment: Cell proliferation assay: GI50; assay type: cell-based
Procedure: as §1

NB-4 = experiment: Cell proliferation assay: GI50; assay type: cell-based
Procedure: as §1

KASUMI-1 = experiment: Cell proliferation assay: GI50; assay type: cell-based
Procedure: as §1

UT-7 = experiment: Cell proliferation assay: GI50; assay type: cell-based
Procedure: as §1

TF-1 = experiment: Cell proliferation assay: GI50; assay type: cell-based
Procedure: as §1

OCI-AML3 = experiment: Cell proliferation assay: GI50; assay type: cell-based
Procedure: as §1

OCI-AML2 = experiment: Cell proliferation assay: GI50; assay type: cell-based
Procedure: as §1

M-07e = experiment: Cell proliferation assay: GI50; assay type: cell-based; settings: replicates 1-3
Procedure: as §1

HEL = experiment: Cell proliferation assay: GI50; assay type: cell-based; settings: replicates 1-3
Procedure: as §1

Q: How did the “CD11b (%)” value ([1]; primary AML patient sample 1 (Figure 2C)) turn out when COc1cc2nc(-c3cc(C)oc3C)cc(NCC3CCN(c4ncc(C(=O)NO)cn4)CC3)c2cc1OC [CM-1758, 2-[4-[[[2-(2,5-dimethyl-3-furyl)-6,7-dimethoxy-4-quinolyl]amino]methyl] -1-piperidyl]pyrimidine-5-carbohydroxamic acid] was run?
A: Its value is 43.21%.

Q: What about the “CD11b (%)” value ([1]; primary AML patient sample 2 (Figure 2C)) of the same molecule?
A: The value was 30.14%.

Q: What about the “CD11b (%)” value ([1]; primary AML patient sample 3 (Figure 2C)) of the same molecule?
A: Its value is 23.69%.

Q: What about the “CD11b (%)” value ([1]; primary AML patient sample 4 (Figure 2C)) of the same molecule?
A: Its value is 38.45%.

Q: What about the “CD11b (%)” value ([1]; primary AML patient sample 5 (Figure 2C)) of the same molecule?
A: Its value is 30.14%.

Q: And the “CD11b (%)” value ([1]; primary AML patient sample 6 (Figure 2C))?
A: The value was 35.24%.

Q: And the “CD11b (%)” value ([1]; primary AML patient sample 7 (Figure 2C))?
A: Its value is 35.47%.

Q: What about the “CD11b (%)” value ([1]; primary AML patient sample 8 (Figure 2C)) of the same molecule?
A: Its value is 25.49%.

Q: What about the “CD11b-positive cells (%)” value ([1]; sample AML-1, 200 nM) of the same molecule?
A: Its value is 30.6%.

Q: And the “CD11b-positive cells (%)” value ([1]; sample AML-1, 500 nM)?
A: The value was 43.2%.

Q: And the “CD11b-positive cells (%)” value ([1]; sample AML-2, 200 nM)?
A: Its value is 15.2%.

Q: What about the “CD11b-positive cells (%)” value ([1]; sample AML-2, 500 nM) of the same molecule?
A: Its value is 30.1%.

Q: What about the “CD11b-positive cells (%)” value ([1]; sample AML-3, 200 nM) of the same molecule?
A: Its value is 15.5%.

Q: What about the “CD11b-positive cells (%)” value ([1]; sample AML-3, 500 nM) of the same molecule?
A: The value was 23.7%.

Q: What about the “CD11b-positive cells (%)” value ([1]; sample AML-4, 200 nM) of the same molecule?
A: The value was 21.9%.

Q: And the “CD11b-positive cells (%)” value ([1]; sample AML-4, 500 nM)?
A: The value was 38.4%.

Q: What about the “CD11b-positive cells (%)” value ([1]; sample AML-5, 200 nM) of the same molecule?
A: The value was 19.2%.

Q: And the “CD11b-positive cells (%)” value ([1]; sample AML-5, 500 nM)?
A: Its value is 30.1%.

Q: And the “CD11b-positive cells (%)” value ([1]; sample AML-6, 200 nM)?
A: The value was 27.2%.

Q: And the “CD11b-positive cells (%)” value ([1]; sample AML-6, 500 nM)?
A: The value was 35.2%.

Q: And the “CD11b-positive cells (%)” value ([1]; sample AML-7, 200 nM)?
A: The value was 30.1%.

Q: And the “CD11b-positive cells (%)” value ([1]; sample AML-7, 500 nM)?
A: The value was 35.5%.

Q: What about the “CD11b-positive cells (%)” value ([1]; sample AML-8, 200 nM) of the same molecule?
A: The value was 16.2%.

Q: And the “CD11b-positive cells (%)” value ([1]; sample AML-8, 500 nM)?
A: The value was 25.5%.

Q: And the GI50 (GF-D8; 48 h, GF-D8, 48 h)?
A: The GI50 was > 10000 nM.

Q: And the GI50 (GF-D8; GF-D8, replicates 1-3)?
A: Its GI50 is > 10000 nM.

Q: What about the GI50 (THP-1; Homo sapiens, THP-1, 48 h) of the same molecule?
A: The GI50 was > 10000 nM.

Q: What about the GI50 (THP-1; Homo sapiens, THP-1, replicates 1-3) of the same molecule?
A: The GI50 was > 10000 nM.

Q: What about the GI50 (THP-1; THP-1, replicates 1-3) of the same molecule?
A: The GI50 was > 10000 nM.

Q: And the GI50 (MONO-MAC-6; Homo sapiens, MONO-MAC-6, 48 h)?
A: The GI50 was 617 nM.

Q: And the GI50 (MONO-MAC-6; Homo sapiens, MONO-MAC-6, MONO-MAC-6, replicates 1-3)?
A: The GI50 was 785 nM.

Q: And the GI50 (MONO-MAC-6; MONO-MAC-6, replicates 1-3)?
A: The GI50 was 600 nM and 466 nM.

Q: What about the GI50 (NB-4; Homo sapiens, NB-4, 48 h) of the same molecule?
A: Its GI50 is 857 nM.

Q: And the GI50 (NB-4; Homo sapiens, NB-4, NB-4, replicates 1-3)?
A: Its GI50 is 987 nM.

Q: What about the GI50 (NB-4; NB-4, replicates 1-3) of the same molecule?
A: Its GI50 is 714 nM and 870 nM.

Q: What about the GI50 (KASUMI-1; Homo sapiens, Kasumi 1, 48 h, KASUMI-1, 48 h) of the same molecule?
A: Its GI50 is 578 nM.

Q: And the GI50 (KASUMI-1; Homo sapiens, Kasumi 1, KASUMI-1, replicates 1-3)?
A: Its GI50 is 721 nM.

Q: What about the GI50 (KASUMI-1; KASUMI-1, replicates 1-3) of the same molecule?
A: Its GI50 is 635 nM and 379 nM.

Q: What about the GI50 (UT-7; Homo sapiens, UT7, UT-7, replicates 1-3) of the same molecule?
A: Its GI50 is 3680 nM.

Q: And the GI50 (UT-7; UT-7, replicates 1-3)?
A: The GI50 was 3940 nM and 3670 nM.

Q: What about the GI50 (TF-1; Homo sapiens, TF-1, TF-1, replicates 1-3) of the same molecule?
A: Its GI50 is 2960 nM.

Q: And the GI50 (TF-1; TF-1, replicates 1-3)?
A: The GI50 was 2580 nM and 2690 nM.

Q: And the GI50 (OCI-AML3; Homo sapiens, OCI-AML-3, OCI-AML3, 48 h)?
A: Its GI50 is > 10000 nM.

Q: And the GI50 (OCI-AML3; Homo sapiens, OCI-AML-3, OCI-AML3, replicates 1-3)?
A: Its GI50 is > 10000 nM.

Q: And the GI50 (OCI-AML3; OCI-AML3, replicates 1-3)?
A: The GI50 was > 10000 nM.

Q: And the GI50 (OCI-AML2; Homo sapiens, OCI-AML2, 48 h)?
A: The GI50 was 774 nM.

Q: What about the GI50 (OCI-AML2; Homo sapiens, OCI-AML2, OCI-AML2, replicates 1-3) of the same molecule?
A: The GI50 was 954 nM.

Q: And the GI50 (OCI-AML2; OCI-AML2, replicates 1-3)?
A: Its GI50 is 712 nM and 655 nM.

Q: And the GI50 (M-07e)?
A: Its GI50 is 1320 nM and 1990 nM and 1190 nM.

Q: And the GI50 (HEL; Homo sapiens)?
A: The GI50 was 1880 nM.

Q: What about the GI50 (HEL) of the same molecule?
A: Its GI50 is 1320 nM and 1360 nM.
